Here are results for 10 molecules from BindingDB's records for doi:10.1021/acs.jmedchem.8b00408 (Duquesne University, 2018).

The IC50 is the concentration that gives 50% inhibition.

Assay [1] can be described thus: Binding affinity to human PCFT4 expressed in human HeLa R1-11 cells assessed as antiproliferative activity measured as reduction in cell growth after 96 hrs by Cell-Titer Blue assay.
Assay [2] is described as follows: Binding affinity to human RFC2 expressed in human HeLa R1-11 cells assessed as antiproliferative activity measured as reduction in cell growth after 96 hrs by Cell-Titer Blue assay.
The nature of assay [3]: Binding affinity to human RFC expressed in Chinese hamster PC43-10 cells assessed as antiproliferative activity measured as reduction in cell growth after 96 hrs by Cell-Titer Blue assay.
Assay [4] deals with Folate receptor alpha (Homo sapiens) (UniProt P15328). Kind of assay: Binding affinity to human FRalpha expressed in human HeLa R1-11-FR2 cells assessed as antiproliferative activity measured as reduction in cell growth after 96 hrs by Cell-Titer Blue assay.
The nature of assay [5]: Binding affinity to human PCFT expressed in Chinese hamster R2/PCFT4 cells assessed as antiproliferative activity measured as reduction in cell growth after 96 hrs by Cell-Titer Blue assay.
Assay [6] is described as follows: Binding affinity to human FRbeta expressed in Chinese hamster D4 cells assessed as antiproliferative activity measured as reduction in cell growth after 96 hrs by Cell-Titer Blue assay.
A short description of assay [7]: Binding affinity to human FRalpha expressed in Chinese hamster RT16 cells assessed as antiproliferative activity measured as reduction in cell growth after 96 hrs by Cell-Titer Blue assay.

Chain of Folate receptor alpha (Homo sapiens) (P15328 whole entry, looked up): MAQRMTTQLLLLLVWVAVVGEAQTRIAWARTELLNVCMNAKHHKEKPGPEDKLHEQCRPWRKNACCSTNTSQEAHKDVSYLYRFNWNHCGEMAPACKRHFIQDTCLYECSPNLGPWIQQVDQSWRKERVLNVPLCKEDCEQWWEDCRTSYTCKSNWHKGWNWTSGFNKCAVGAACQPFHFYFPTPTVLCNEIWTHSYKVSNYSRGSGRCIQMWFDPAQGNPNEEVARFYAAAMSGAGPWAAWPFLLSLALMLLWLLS

Turning to `Nc1nc2[nH]c(CCCc3csc(C(=O)N[C@@H](CCC(=O)O)C(=O)O)c3)cc2c(=O)[nH]1`, the 50% inhibitory concentration (IC50) in assay [1] worked out at 40 nM; in assay [2], 63 nM.
For `Nc1nc2[nH]c(CCCc3ccc(C(=O)N[C@@H](CCC(=O)O)C(=O)O)s3)cc2c(=O)[nH]1`, the IC50 in assay [2] stood at 444 nM; in assay [3], 106 nM.
Turning to `Nc1nc2[nH]c(CCCCc3csc(C(=O)N[C@@H](CCC(=O)O)C(=O)O)c3)cc2c(=O)[nH]1`, the values for the IC50 in assay [1], in assay [2] and in assay [3] were 73 nM, greater than 1000 nM and greater than 1000 nM, respectively.
In the case of `Nc1nc2[nH]c(CCCCc3ccc(C(=O)N[C@@H](CCC(=O)O)C(=O)O)nc3)cc2c(=O)[nH]1`, the half-maximal inhibitory concentration (IC50) is 9 nM in assay [1], 634 nM in assay [2] and greater than 1000 nM in assay [3].
For the molecule `Nc1nc2[nH]c(CCCc3ccc(C(=O)N[C@@H](CCC(=O)O)C(=O)O)c(F)c3)cc2c(=O)[nH]1`, the half-inhibitory concentration (IC50) in assay [4] amounted to 5.2 nM; in assay [1] it was 5.5 nM; in assay [2] it was 507 nM; in assay [3] it was 62 nM; in assay [5], 3.8 nM; in assay [6], 3.9 nM.
Consider `Nc1nc2[nH]c(CCCCc3csc(C(=O)N[C@@H](CCC(=O)O)C(=O)O)c3F)cc2c(=O)[nH]1`, for which the IC50 in assay [1] was 5 nM; in assay [2], 213 nM; in assay [3], greater than 1000 nM; in assay [5], 6 nM.
Turning to `Nc1nc2[nH]c(CCCc3csc(C(=O)N[C@@H](CCC(=O)O)C(=O)O)c3F)cc2c(=O)[nH]1`, the concentration for half-maximal inhibition (IC50) is 3.1 nM in assay [4]; 66 nM in assay [2]; 0.14 nM in assay [7]; 1.5 nM in assay [5]; 0.19 nM in assay [6].
`Nc1nc2[nH]c(CCCCc3ccc(C(=O)N[C@@H](CCC(=O)O)C(=O)O)cc3F)cc2c(=O)[nH]1`: the IC50 in assay [7] came to 1.4 nM; in assay [5] it was 207 nM; in assay [6], 0.93 nM.
As to `Nc1nc2[nH]c(CCCc3ccc(C(=O)N[C@@H](CCC(=O)O)C(=O)O)cc3)cc2c(=O)[nH]1` [(S)-2-(4-(3-(2-amino-4-oxo-4,7-dihydro-3H-pyrrolo[2,3-d]pyrimidin-6-yl)propyl)benzamido)pentanedioic acid], the values for the IC50 in assay [1], in assay [2] and in assay [3] were 9.7 nM, greater than 1000 nM and 304 nM, respectively.
On to `Nc1nc2[nH]c(CCCCc3ccc(C(=O)N[C@@H](CCC(=O)O)C(=O)O)cc3)cc2c(=O)[nH]1` [N-{4-[4-(2-Amino-4-oxo-4,7-dihydro-3H-pyrrolo[2,3-d]pyrimidin-6-yl)butyl]benzoyl}-L-glutamic Acid], for which the half-inhibitory concentration (IC50) in assay [2] and in assay [3] was greater than 1000 nM in each case.
